Data as given in patent publication US20240293400A1, “NOVEL AZAINDOLE DERIVATIVES AS ANTIVIRAL AGENTS” (Centre National de la Recherche Scientifique, priority 2021, published 2024).

Tests used:
ZAP70 = ZAP70 (Homo sapiens (Human), UniProt P43403); experiment: Kinase panel Z'-LYTE/Adapta SelectScreen; type: biochemical; conditions: 100 nM in 1% DMSO
Procedure: (§1) The inhibitory activity of the compounds on a panel of kinases including, inter alia, AXL and FLT3 was evaluated by Thermo Fisher Scientific using Z′-LYTE® and Adapta® Select Screen technology.
(§2) The fluorescence-based biochemical test uses coupled enzymes and is based on the difference in sensitivity of the phosphorylated and non-phosphorylated peptides to proteolytic cleavage. The peptide substrate is labeled with 2 fluorophores—one at each end—allowing fluorescence transfer (FRET).
(§3) Compounds 1, 2 and 3 are tested in wells at the final concentration of 100 nM in 1% DMSO.

MET (cMet) = MET (cMet) (Homo sapiens (Human), UniProt P08581); experiment: Kinase panel Z'-LYTE/Adapta SelectScreen; type: biochemical; conditions: 100 nM in 1% DMSO
Procedure: as §1, §2, §3

KIT = KIT (Homo sapiens (Human), UniProt P10721); experiment: Kinase panel Z'-LYTE/Adapta SelectScreen; type: biochemical; conditions: 100 nM in 1% DMSO
Procedure: as §1, §2, §3

AURKA (Aurora A) = AURKA (Aurora A) (Homo sapiens (Human), UniProt O14965); experiment: Kinase panel Z'-LYTE/Adapta SelectScreen; type: biochemical; conditions: 100 nM in 1% DMSO
Sequence of AURKA (Aurora A) (O14965 whole entry): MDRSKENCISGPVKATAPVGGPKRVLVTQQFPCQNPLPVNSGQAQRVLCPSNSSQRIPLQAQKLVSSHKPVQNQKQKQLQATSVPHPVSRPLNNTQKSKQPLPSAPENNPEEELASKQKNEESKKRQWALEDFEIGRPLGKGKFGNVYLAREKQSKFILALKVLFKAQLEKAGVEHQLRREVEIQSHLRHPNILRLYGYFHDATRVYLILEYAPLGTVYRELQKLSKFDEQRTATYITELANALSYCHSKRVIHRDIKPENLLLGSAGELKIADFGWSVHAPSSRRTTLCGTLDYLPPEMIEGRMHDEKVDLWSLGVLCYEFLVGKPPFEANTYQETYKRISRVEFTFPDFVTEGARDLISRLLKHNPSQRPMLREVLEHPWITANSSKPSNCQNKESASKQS
Procedure: as §1, §2, §3

TEK (Tie2) = TEK (Tie2) (Homo sapiens (Human), UniProt Q02763); experiment: Kinase panel Z'-LYTE/Adapta SelectScreen; type: biochemical; conditions: 100 nM in 1% DMSO
Sequence of TEK (Tie2) (Q02763 23-1124): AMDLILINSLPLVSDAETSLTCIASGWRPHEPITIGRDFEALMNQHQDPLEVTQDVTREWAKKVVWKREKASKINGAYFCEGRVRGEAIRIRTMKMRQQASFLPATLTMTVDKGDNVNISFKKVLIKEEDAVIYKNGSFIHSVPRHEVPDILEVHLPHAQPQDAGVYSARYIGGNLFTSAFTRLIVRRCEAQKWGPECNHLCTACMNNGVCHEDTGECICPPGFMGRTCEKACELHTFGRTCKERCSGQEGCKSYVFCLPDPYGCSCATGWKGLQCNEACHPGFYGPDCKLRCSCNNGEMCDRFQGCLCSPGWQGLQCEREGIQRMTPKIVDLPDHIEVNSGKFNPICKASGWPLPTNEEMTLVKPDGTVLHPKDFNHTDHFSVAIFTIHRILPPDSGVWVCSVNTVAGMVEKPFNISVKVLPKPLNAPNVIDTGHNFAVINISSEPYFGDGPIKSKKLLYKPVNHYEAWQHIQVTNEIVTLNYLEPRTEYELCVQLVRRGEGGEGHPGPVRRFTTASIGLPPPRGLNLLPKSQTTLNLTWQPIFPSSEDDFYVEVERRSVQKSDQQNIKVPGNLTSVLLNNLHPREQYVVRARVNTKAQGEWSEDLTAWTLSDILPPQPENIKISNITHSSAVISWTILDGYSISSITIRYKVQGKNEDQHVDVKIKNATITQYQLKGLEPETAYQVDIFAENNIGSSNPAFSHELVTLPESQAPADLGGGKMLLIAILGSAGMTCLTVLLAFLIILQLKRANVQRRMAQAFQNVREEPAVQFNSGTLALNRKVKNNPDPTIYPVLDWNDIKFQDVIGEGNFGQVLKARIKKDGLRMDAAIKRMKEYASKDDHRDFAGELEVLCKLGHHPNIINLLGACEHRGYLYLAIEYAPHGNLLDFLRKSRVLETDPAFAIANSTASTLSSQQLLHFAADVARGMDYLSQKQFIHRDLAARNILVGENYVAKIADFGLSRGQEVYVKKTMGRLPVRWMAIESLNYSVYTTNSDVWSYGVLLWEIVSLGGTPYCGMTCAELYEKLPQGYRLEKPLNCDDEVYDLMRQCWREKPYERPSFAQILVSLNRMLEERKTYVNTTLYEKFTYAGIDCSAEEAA
Procedure: as §1, §2, §3

ALK = ALK (Homo sapiens (Human), UniProt Q9UM73); experiment: Kinase panel Z'-LYTE/Adapta SelectScreen; type: biochemical; conditions: 100 nM in 1% DMSO
Sequence of ALK (Q9UM73 19-1620): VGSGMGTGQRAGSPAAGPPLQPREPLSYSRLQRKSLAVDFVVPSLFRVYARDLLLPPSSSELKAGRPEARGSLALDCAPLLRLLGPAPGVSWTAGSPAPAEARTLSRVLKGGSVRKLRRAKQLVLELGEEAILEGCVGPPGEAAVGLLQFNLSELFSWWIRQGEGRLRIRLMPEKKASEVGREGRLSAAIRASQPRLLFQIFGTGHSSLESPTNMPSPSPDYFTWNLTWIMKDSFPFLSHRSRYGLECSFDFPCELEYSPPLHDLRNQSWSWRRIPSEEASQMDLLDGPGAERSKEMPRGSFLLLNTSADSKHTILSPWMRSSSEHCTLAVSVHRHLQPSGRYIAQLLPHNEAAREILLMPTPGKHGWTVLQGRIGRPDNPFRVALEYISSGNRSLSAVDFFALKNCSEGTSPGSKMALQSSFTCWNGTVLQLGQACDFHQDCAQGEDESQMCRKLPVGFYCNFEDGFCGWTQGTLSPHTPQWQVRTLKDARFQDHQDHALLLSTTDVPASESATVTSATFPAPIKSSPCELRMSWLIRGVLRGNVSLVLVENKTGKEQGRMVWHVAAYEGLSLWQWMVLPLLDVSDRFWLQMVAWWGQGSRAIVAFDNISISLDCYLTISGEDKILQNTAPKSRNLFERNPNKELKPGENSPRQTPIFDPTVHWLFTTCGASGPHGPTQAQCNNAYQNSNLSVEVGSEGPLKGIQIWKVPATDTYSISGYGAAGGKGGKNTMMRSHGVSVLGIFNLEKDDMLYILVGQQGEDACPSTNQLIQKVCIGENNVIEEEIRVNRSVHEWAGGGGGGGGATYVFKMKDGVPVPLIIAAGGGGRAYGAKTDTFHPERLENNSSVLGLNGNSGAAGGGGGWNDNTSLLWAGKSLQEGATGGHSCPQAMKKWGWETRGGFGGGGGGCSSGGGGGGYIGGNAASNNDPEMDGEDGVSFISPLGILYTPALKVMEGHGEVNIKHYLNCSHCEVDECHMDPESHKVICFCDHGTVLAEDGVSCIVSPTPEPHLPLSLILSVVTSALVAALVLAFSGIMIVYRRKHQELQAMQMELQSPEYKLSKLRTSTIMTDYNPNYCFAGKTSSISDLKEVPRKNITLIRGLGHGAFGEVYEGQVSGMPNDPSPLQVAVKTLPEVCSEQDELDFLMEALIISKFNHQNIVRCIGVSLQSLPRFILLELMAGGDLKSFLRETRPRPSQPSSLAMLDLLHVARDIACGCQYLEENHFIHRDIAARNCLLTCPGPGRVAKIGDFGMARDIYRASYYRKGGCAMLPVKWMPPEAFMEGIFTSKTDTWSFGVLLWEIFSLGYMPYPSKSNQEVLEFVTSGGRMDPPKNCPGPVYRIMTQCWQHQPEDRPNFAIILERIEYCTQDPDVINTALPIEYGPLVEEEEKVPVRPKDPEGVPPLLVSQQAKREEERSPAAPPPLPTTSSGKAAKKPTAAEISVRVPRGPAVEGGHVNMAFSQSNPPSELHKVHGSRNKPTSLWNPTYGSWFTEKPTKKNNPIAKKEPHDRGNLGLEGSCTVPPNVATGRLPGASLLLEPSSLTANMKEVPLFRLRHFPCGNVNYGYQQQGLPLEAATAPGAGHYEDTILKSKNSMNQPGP
Procedure: as §1, §2, §3

CSK = CSK (Homo sapiens (Human), UniProt P41240); experiment: Kinase panel Z'-LYTE/Adapta SelectScreen; type: biochemical; conditions: 100 nM in 1% DMSO
Procedure: as §1, §2, §3

NTRK1 (TRKA) = NTRK1 (TRKA) (Homo sapiens (Human), UniProt P04629); experiment: Kinase panel Z'-LYTE/Adapta SelectScreen; type: biochemical; conditions: 100 nM in 1% DMSO
Procedure: as §1, §2, §3

NTRK2 (TRKB) = NTRK2 (TRKB) (Homo sapiens (Human), UniProt Q16620); experiment: Kinase panel Z'-LYTE/Adapta SelectScreen; type: biochemical; conditions: 100 nM in 1% DMSO
Procedure: as §1, §2, §3

LCK = LCK (Homo sapiens (Human), UniProt P06239); experiment: Kinase panel Z'-LYTE/Adapta SelectScreen; type: biochemical; conditions: 100 nM in 1% DMSO
Sequence of LCK (P06239 whole entry): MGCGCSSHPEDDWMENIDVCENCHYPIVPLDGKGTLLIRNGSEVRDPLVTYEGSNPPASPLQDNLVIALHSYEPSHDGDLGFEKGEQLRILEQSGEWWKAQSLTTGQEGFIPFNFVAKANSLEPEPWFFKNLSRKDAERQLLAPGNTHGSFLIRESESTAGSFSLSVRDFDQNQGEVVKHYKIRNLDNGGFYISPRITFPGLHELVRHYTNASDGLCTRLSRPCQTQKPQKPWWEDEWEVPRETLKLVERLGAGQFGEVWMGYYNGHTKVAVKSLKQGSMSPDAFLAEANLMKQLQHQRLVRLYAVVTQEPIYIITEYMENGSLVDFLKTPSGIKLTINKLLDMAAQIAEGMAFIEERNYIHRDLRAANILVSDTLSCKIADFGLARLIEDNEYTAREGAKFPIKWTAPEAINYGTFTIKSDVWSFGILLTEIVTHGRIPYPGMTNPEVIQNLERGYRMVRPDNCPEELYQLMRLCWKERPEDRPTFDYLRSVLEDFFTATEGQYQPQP
Procedure: as §1, §2, §3

SRC = SRC (Homo sapiens (Human), UniProt P12931); experiment: Kinase panel Z'-LYTE/Adapta SelectScreen; type: biochemical; conditions: 100 nM in 1% DMSO
Sequence of SRC (P12931 whole entry, looked up): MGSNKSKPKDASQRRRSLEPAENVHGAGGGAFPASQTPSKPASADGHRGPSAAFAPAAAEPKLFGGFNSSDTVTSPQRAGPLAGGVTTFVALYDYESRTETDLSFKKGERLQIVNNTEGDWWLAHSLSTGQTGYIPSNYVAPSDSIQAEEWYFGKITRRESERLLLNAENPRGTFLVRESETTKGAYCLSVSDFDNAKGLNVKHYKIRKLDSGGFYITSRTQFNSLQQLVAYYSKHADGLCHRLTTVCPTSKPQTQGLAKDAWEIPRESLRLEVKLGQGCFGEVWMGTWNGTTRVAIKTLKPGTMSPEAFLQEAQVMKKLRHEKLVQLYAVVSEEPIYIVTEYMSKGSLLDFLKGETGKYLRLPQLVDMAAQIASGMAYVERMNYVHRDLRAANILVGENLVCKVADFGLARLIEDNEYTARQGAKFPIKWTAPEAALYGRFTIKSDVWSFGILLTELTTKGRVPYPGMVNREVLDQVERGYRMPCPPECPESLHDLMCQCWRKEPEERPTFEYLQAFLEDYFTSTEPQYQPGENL
Procedure: as §1, §2, §3

FLT4 (VEGFR3) = FLT4 (VEGFR3) (Homo sapiens (Human), UniProt P35916); experiment: Kinase panel Z'-LYTE/Adapta SelectScreen; type: biochemical; conditions: 100 nM in 1% DMSO
Procedure: as §1, §2, §3

PDGFRB (PDGFR beta) = PDGFRB (PDGFR beta) (Homo sapiens (Human), UniProt P09619); experiment: Kinase panel Z'-LYTE/Adapta SelectScreen; type: biochemical; conditions: 100 nM in 1% DMSO
Procedure: as §1, §2, §3

CSF1R (FMS) = CSF1R (FMS) (Homo sapiens (Human), UniProt P07333); experiment: Kinase panel Z'-LYTE/Adapta SelectScreen; type: biochemical; conditions: 100 nM in 1% DMSO
Procedure: as §1, §2, §3

AURKB (Aurora B) = AURKB (Aurora B) (Homo sapiens (Human), UniProt Q96GD4); experiment: Kinase panel Z'-LYTE/Adapta SelectScreen; type: biochemical; conditions: 100 nM in 1% DMSO
Sequence of AURKB (Aurora B) (Q96GD4 whole entry): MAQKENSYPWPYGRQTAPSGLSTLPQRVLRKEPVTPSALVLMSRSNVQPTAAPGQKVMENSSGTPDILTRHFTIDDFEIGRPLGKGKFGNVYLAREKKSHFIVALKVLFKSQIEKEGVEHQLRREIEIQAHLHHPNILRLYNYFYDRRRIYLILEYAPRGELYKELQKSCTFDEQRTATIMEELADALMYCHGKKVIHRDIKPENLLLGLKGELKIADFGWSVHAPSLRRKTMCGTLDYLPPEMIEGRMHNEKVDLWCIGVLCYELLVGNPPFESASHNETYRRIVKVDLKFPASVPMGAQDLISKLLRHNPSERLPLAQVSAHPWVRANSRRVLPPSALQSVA
Procedure: as §1, §2, §3

PDGFRA (PDGFR alpha) = PDGFRA (PDGFR alpha) (Homo sapiens (Human), UniProt P16234); experiment: Kinase panel Z'-LYTE/Adapta SelectScreen; type: biochemical; conditions: 100 nM in 1% DMSO
Procedure: as §1, §2, §3

TYK2 = TYK2 (Homo sapiens (Human), UniProt P29597); experiment: Kinase panel Z'-LYTE/Adapta SelectScreen; type: biochemical; conditions: 100 nM in 1% DMSO
Procedure: as §1, §2, §3

FLT1 (VEGFR1) = FLT1 (VEGFR1) (Homo sapiens (Human), UniProt P17948); experiment: Kinase panel Z'-LYTE/Adapta SelectScreen; type: biochemical; conditions: 100 nM in 1% DMSO
Procedure: as §1, §2, §3

BTK = BTK (Homo sapiens (Human), UniProt Q06187); experiment: Kinase panel Z'-LYTE/Adapta SelectScreen; type: biochemical; conditions: 100 nM in 1% DMSO
Procedure: as §1, §2, §3

ROS1 = ROS1 (Homo sapiens (Human), UniProt P08922); experiment: Kinase panel Z'-LYTE/Adapta SelectScreen; type: biochemical; conditions: 100 nM in 1% DMSO
Procedure: as §1, §2, §3

PTK2 (FAK) = PTK2 (FAK) (Homo sapiens (Human), UniProt Q05397); experiment: Kinase panel Z'-LYTE/Adapta SelectScreen; type: biochemical; conditions: 100 nM in 1% DMSO
Procedure: as §1, §2, §3

JAK3 = JAK3 (Homo sapiens (Human), UniProt P52333); experiment: Kinase panel Z'-LYTE/Adapta SelectScreen; type: biochemical; conditions: 100 nM in 1% DMSO
Procedure: as §1, §2, §3

YES1 = YES1 (Homo sapiens (Human), UniProt P07947); experiment: Kinase panel Z'-LYTE/Adapta SelectScreen; type: biochemical; conditions: 100 nM in 1% DMSO
Sequence of YES1 (P07947 whole entry): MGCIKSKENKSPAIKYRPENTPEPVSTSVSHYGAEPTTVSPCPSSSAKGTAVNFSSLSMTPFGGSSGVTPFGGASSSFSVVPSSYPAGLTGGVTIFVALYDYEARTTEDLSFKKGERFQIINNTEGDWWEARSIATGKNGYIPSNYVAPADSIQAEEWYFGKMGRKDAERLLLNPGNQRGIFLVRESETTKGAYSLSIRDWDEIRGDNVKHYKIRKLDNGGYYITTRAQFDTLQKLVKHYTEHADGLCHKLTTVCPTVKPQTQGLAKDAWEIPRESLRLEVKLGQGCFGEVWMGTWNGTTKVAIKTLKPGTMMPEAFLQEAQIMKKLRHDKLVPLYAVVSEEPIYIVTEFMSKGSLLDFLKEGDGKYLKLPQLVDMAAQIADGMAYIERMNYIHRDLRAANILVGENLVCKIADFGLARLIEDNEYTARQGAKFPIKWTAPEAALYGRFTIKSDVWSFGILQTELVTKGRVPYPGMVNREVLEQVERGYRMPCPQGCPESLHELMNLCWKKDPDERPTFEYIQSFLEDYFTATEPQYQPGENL
Procedure: as §1, §2, §3

[1] = test system: SARS-COV-2 virus, BetaCoV/France/IDF0371/2020; experiment: Anti-SARS-COV-2 activity in VeroE6 cells; type: cell-based; conditions: MOI=0.01, 24 hours, qRT-PCR; for infection of the VeroE6 cells by the SARS-COV-2 virus: 1.25 μM; for IC50: Vero E6 cells
Procedure: FIG. 7: Anti-SARS-COV-2 activity of compounds 1, 2, 3, 10 and 14 determined in the VeroE6 line. The cells were preincubated for 1 hour with compounds at a concentration of 1.25 μM, then infected with the viral strain BetaCoV/France/IDF0371/2020 (MOI=0.01). The cells were kept in culture for 24 hours in the presence of the compound. The residual viral replication is measured by quantification of the viral RNA in the cell culture by qRT-PCR. The control condition is obtained by incubation of cells in the presence of the dilution solvent DMSO (0). The values are averages of triplicates+standard deviation.
The inhibitory activity of the compounds of the invention on the infection by SARS-COV-2 was evaluated in vitro by infection of three relevant lines for the study of this pathogen: the green monkey line VeroE6 (immortalized kidney epithelium, ATCC #CRL-1586), the A549-ACE2 line produced by transfection of the ACE2 receptor in the A549 line (pulmonary epithelial carcinoma; ATCC #CCL-185), commercial primary bronchial epithelium cells (Mucilair Epithelix).
The infection tests are carried out by preincubating 4×10^4 VeroE6 or A549-ACE2 cells, cultivated in a 96-well plate, with the indicated concentrations of compounds for 1 hour. The cells are cultivated in a 5% CO2 atmosphere in a Dulbecco's modified Eagle's medium (DMEM) comprising 2% calf serum and 1% penicillin/streptomycin. The cells were then exposed to the SARS-COV-2 virus, BetaCoV/France/IDF0371/2020 (MOI=0.01) for 2 hours in the presence of the compounds before elimination of the innoculum, washing and culturing the cells in the presence of the compounds. 24 h after the viral challenge, the infection is quantified by amplification of the viral RNA by qRT-PCR using the Luna Universal One-Step RT-PCR kit. The values (DCT) are normalized by the GAPDH mRNA. The values represented are averages of triplicates+standard deviation. The control conditions were carried out by incubating the cells in the presence of DMSO, the solvent used for the solubilization of the compounds tested. The volumes of DMSO used under these conditions correspond to the volumes provided by the compounds under the test conditions.
IC50 compounds 1, 2 and 3 were determined on the VeroE6 and A549-ACE2 cells using the software Graphpad Prism.

| Structure (SMILES) | Percentage inhibition ZAP70 (ZAP70) [%] | Percentage inhibition MET (cMet) (MET (cMet)) [%] | Percentage inhibition KIT (KIT) [%] | Percentage inhibition AURKA (Aurora A) (AURKA (Aurora A)) [%] | Percentage inhibition TEK (Tie2) (TEK (Tie2)) [%] | Percentage inhibition ALK (ALK) [%] | Percentage inhibition CSK (CSK) [%] | Percentage inhibition NTRK1 (TRKA) (NTRK1 (TRKA)) [%] | Percentage inhibition NTRK2 (TRKB) (NTRK2 (TRKB)) [%] | Percentage inhibition LCK (LCK) [%] | Percentage inhibition SRC (SRC) [%] | Percentage inhibition FLT4 (VEGFR3) (FLT4 (VEGFR3)) [%] | Percentage inhibition PDGFRB (PDGFR beta) (PDGFRB (PDGFR beta)) [%] | Percentage inhibition CSF1R (FMS) (CSF1R (FMS)) [%] | Percentage inhibition AURKB (Aurora B) (AURKB (Aurora B)) [%] | Percentage inhibition PDGFRA (PDGFR alpha) (PDGFRA (PDGFR alpha)) [%] | Percentage inhibition TYK2 (TYK2) [%] | Percentage inhibition FLT1 (VEGFR1) (FLT1 (VEGFR1)) [%] | Percentage inhibition BTK (BTK) [%] | Percentage inhibition ROS1 (ROS1) [%] | other results |
| --- | --- | --- | --- | --- | --- | --- | --- | --- | --- | --- | --- | --- | --- | --- | --- | --- | --- | --- | --- | --- | --- |
| CN1CCN(Cc2cccc(-c3cnc4[nH]cc(-c5cc(CNCCc6ccc(O)cc6)ccc5F)c4c3)c2)CC1 [Compound 1] | 4 | 15 | 8 | 14 | 13 | 45 | 7 | 53 | 61 | 50 | 19 | 64 | 37 | 62 | 41 | 57 | 5 | 53 | 12 | 64 | Percentage inhibition PTK2 (FAK) (PTK2 (FAK)): 22%; Percentage inhibition JAK3 (JAK3): 42%; Percentage inhibition YES1 (YES1): 18%; infection of the VeroE6 cells by the SARS-COV-2 virus [1]: prevent the infection; IC50 [1]: 77 nM |
| CN1CCN(Cc2cccc(-c3cnc4[nH]cc(-c5cc(CNCc6ccccc6)ccc5F)c4c3)c2)CC1 [Compound 2] | 4 | 92 | 49 | 11 | 88 | 12 | 12 | 96 | 103 | 63 | 16 | 33 | 30 | 41 | 20 | 31 | 5 | 19 | 10 | 77 | Percentage inhibition PTK2 (FAK) (PTK2 (FAK)): 33%; Percentage inhibition JAK3 (JAK3): 18%; Percentage inhibition YES1 (YES1): 15%; infection of the VeroE6 cells by the SARS-COV-2 virus [1]: prevent the infection; IC50 [1]: 289 nM |
| CN1CCN(Cc2cccc(-c3cnc4[nH]cc(-c5cc(NC(=O)Nc6ccccc6)ccc5F)c4c3)c2)CC1 [Compound 3] | 5 | 16 | 15 | 14 | 27 | 17 | 8 | 69 | 94 | 42 | 10 | 37 | 19 | 26 | 38 | 21 | 7 | 19 | 10 | 18 | Percentage inhibition PTK2 (FAK) (PTK2 (FAK)): 24%; Percentage inhibition JAK3 (JAK3): 13%; Percentage inhibition YES1 (YES1): 11%; infection of the VeroE6 cells by the SARS-COV-2 virus [1]: prevent the infection |
